Experimental data reported in patent publication US20100331315A1, “RHODANINES AND RELATED HETEROCYCLES AS KINASE INHIBITORS” (priority 2009, published 2010).
Values belong to the molecule of their own block, whether it stands above or below them.

How the values were obtained:
K-562 = assay: Alamar Blue cell proliferation assay, K-562; assay type: cell-based; settings: Homo sapiens, K562, K-562, Table 1, read-out: AB: K-562 IC50
Outline: (§1)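 Cells were seeded at 4,000-5,000 per well and exposed to compound for four days at 37° C under 5% CO2. Alamar Blue was then added for four hours, and fluorescence was read at 544 nm excitation and 590 nm emission against untreated-cell and medium-only controls.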

MV-4-11 = assay: Alamar Blue cell proliferation assay, MV-4-11; assay type: cell-based; settings: Homo sapiens, MV4-11, MV-4-11, Table 1, read-out: AB: MV-4-11 IC50
Outline: as §1

[1] = test system: HCT-116 human colorectal carcinoma cells; assay: Alamar Blue cell proliferation assay, HCT-116; assay type: cell-based; settings: HCT-116, Table 1, read-out: AB: HCT-116 IC50
Method: A representative cell-proliferation assay protocol using Alamar Blue dye (stored at 4° C., use 20 ul per well) is described hereafter.
a. Split and trypsinize cells.
b. Count cells using hemocytometer.
c. Plate 4,000-5,000 cells per well in 100 μl of medium and seed into a 96-well plate according to the following plate layout. Add cell culture medium only to wells B10 to B12. Wells B1 to B9 have cells but no compound added.
d. Add 100 μl of 2× drug dilution to each well in a concentration shown in the plate layout above. At the same time, add 100 μl of media into the control wells (wells B10 to B12). Total volume is 200 μl/well.
e. Incubate four (4) days at 37° C., 5% CO2 in a humidified incubator.
f. Add 20 μl Alamar Blue reagent to each well.
g. Incubate for four (4) hours at 37° C., 5% CO2 in a humidified incubator.
h. Record fluorescence at an excitation wavelength of 544 nm and emission wavelength of 590 nm using a microplate reader.
In the assays, cells are cultured with a test compound for approximately four days, the dye is then added to the cells and fluorescence of […] dye is detected after approximately four hours. Different types of cells can be utilized in the assays (e.g., HCT-116 human colorectal carcinoma cells, PC-3 human prostatic cancer cells and MiaPaca human pancreatic carcinoma cells).

[2] = test system: leukemic cells from AML patients; settings: Fedorov et al., PNAS 104(51); cited from earlier work
MOLM-13 (AML) xenograft = MOLM-13 (AML) xenograft model; 2008 AACR Abstract No. 4974; cited from earlier work
MV-4-11 (AML) xenograft = MV-4-11 (AML) xenograft model; 2008 AACR Abstract No. 4974; cited from earlier work

IC50 (K-562): > 10 µM
IC50 (MV-4-11): > 10 µM
IC50 [1]: > 10 µM
SMILES: O=C1NC(=S)S/C1=C\c1ccc(-c2cccc(C(=O)O)c2)o1

SMILES: CN(C)C[C@@H]1CCn2cc(c3ccccc32)C2=C(C(=O)NC2=O)c2cn(c3ccccc23)CCO1 [Ly5333′531]
effect on cell growth and cell death [2]: suppressed cell growth and induced cell death

SMILES: CN1CCC(CNc2ccc3ncc(-c4cccc(OC(F)(F)F)c4)n3n2)CC1 [SGI-1776]
tumor regression (MOLM-13 (AML) xenograft): significant tumor regression
tumor regression (MV-4-11 (AML) xenograft): significant tumor regression
